Experiments:
[1] = cited from earlier work; for half-life: formerly reported
[2] = cited from earlier work
[3] = EPR organ and blood distribution of SLENU after i.p. administration; format: in vivo, male albino non-inbred mice; details: i.p. 40 mg/kg
Experimental: For EPR experiments of SLENU (administrated i.p. at a dose of 40 mg/kg) blood samples were taken from the free-streaming blood of a male albino non-inbred mice and were collected into heparinized tubes containing PBS (pH = 7–7.4). […] Decay-corrected radioactivity in the blood was expressed as per cent injected dose in the blood, using the total blood volume as 7% of the body weight. Animal protocols have been approved by the Bulgarian/Indian Institutional Animals ethics Committee.
First biodistribution study for EPR experiments of SLENU in organ homogenates (liver, lungs, spleen, pancreas, brain, kidneys) and blood was evaluated in male albino non-inbred mice (35–40 g body weight, normal diet) as previously described by. Spin-labelled nitrosourea was administrated i.p. at a dose of 40 mg/kg. Animals were decapitated at appropriate time points following injection (10, 30, 60, 90 min and on 4 h, 24 h) and dissected. Tissues from lungs, liver, spleen, brain, kidneys, pancreas and blood were collected and processed immediately. For nitrosourea extraction, samples were weighed and homogenized in PBS (10% w/v) and centrifuged at 2000 g for 15 min. Supernatants were collected and the concentration of nitrosourea was evaluated by EPR spectroscopy. Before measuring the spin-labelled concentration, the samples were […] by K3[Fe(CN6)] (a spectroscopic broadening reagent), because of the fast reduction of the nitroxide function (10–20 min) in the tissues.

Lymphoma L1210 = tested on: Lymphoma L1210; design: method as in PMID 19081996, PMID 19718801, PMID 20097958; details: C57BL/Lymphoma L1210 bearing mice; cited from earlier work
[4] = cited from earlier work; remark: listed apart in the source

SMILES | half-life [1] [h] | carbamoylating activity ([2]; EPR research) | carbamoylating activity relative to CCNU ([2]; formerly reported) | time of maximum concentration in blood (EPR) ([3]; blood) [min] | time of maximum concentration in brain (EPR) ([3]; brain homogenate) [min] | time of maximum concentration in kidneys (EPR) ([3]; kidneys homogenate) [min] | time of maximum concentration in liver (EPR) ([3]; liver homogenate) [min] | time of maximum concentration in lungs (EPR) ([3]; lungs homogenate) [min] | time of maximum concentration in pancreas (EPR) ([3]; pancreas homogenate) [min] | time of maximum concentration in spleen (EPR) ([3]; spleen homogenate) [min] | presence of spin-labelled nitrosourea in tissues (EPR) ([3]; within 24 h, all tissues studied) | optimal dose for anticancer activity (Lymphoma L1210) [mg/kg] | τ0.5 [1] [min] | alkylating activity [4] [A560/mmol/L/h] | alkylating activity relative to CCNU ([4]; formerly reported)
O=NN(CCCl)C(=O)NC1CCCCC1 [CCNU, 1-(2-chloroethyl)-3-cyclohexyl-1-nitrosourea, reference compound] | 0.9 | – | – | – | – | – | – | – | – | – | – | – | – | – | –
CCN(N=O)C(=O)NC1CC(C)(C)N([O])C(C)(C)C1 [SLENU, 1-ethyl-1-nitroso-3-[4-(2,2,6,6-tetramethylpiperidine-1-oxyl)]-urea] | 1.25 | 54.46 ± 0.17 | high and comparable with that of CCNU | 60 | 60 | 60 | 90 | 30 | 60 | 60 | complete absence | 45 | 75 | 0.008 | lower than that of CCNU

From publication PMC4434051, “Biological evaluation of new potential anticancer agent for tumour imaging and radiotherapy by two methods: ^99mTc-radiolabelling and EPR spectroscopy” (Biotechnology, Biotechnological Equipment, 2014)
